The values that follow come from patent US12331324B2, “Versatile peroxidases and uses thereof” (Yeda Research and Development Co. Ltd., priority 2021, dated 2025).

In test [1] the test system is Pleurotus ostreatus versatile peroxidase VP5, designed variant 5H, SEQ ID NO: 1 (wild type SEQ ID NO: 4; mutations A11S, V15T, A17S, A19E, P26D, D38G, A40Q …). As for the experimental part: (§1) VPs production and purification. A colony from S. cerevisiae clone containing the VP gene (5H, 8H, 11H, VPL_R4, VPL_2-1B) was picked from an SC drop-out plate, inoculated in 25 mL minimal medium in a 250 flask, and incubated for 48 hours at 30° C. and 225 rpm. An aliquot of cells was removed and used to inoculate 100 mL of minimal medium in a 1 L flask to an OD600 nm of 0.25-0.30, under the same conditions. The cells completed two growth phases (8-10 hours, reaching OD600 nm˜1-1.5), then the expression medium (450 mL) was inoculated with 50 mL of the pre-culture in a 2 L flask (OD600 nm˜0.1). Cells were incubated for a further ˜60 hours at 30° C. and 225 rpm. Thereafter, cells were centrifuged at 6000 g for 15 min at 4° C., and the supernatant was collected and filtered with a 0.2 μm filter bottle.
Filtrates were subjected to fractional precipitation with ammonium sulfate in two steps: first cut of 50%, followed by centrifugation and elimination of the precipitates, and the second cut of 70%. […] Protein concentration was determined using the BCA assay with bovine serum albumin as a standard.
pH activity profiles. […] The activities were recorded in triplicate. […] For manganese, the reaction mixtures contained 60 mM MnSO4 in 100 mM sodium tartrate buffer (pH 3, 3.5, 4, 4.5, 5) and 0.1 mM H2O2, and the Mn^3+-tartrate complex absorption was read at 238 nm. […]

Test [2] has as its system Ganoderma sp. 10597_SS1 versatile peroxidase VP8, designed variant 8H, SEQ ID NO: 2 (wild type SEQ ID NO: 5; mutations R4P, M5S, E34T, G59A, T65W, A67Q, V85I …). Format: biochemical. The following applies: for Kcat / Kcat/KM / Km: 25° C. As for the experimental part: as §1
(§2) Filtrates were subjected to fractional precipitation with ammonium sulfate in two steps: first cut of 50%, followed by centrifugation and elimination of the precipitates, and the second cut of 70%. Buffer A was used to dissolve the pellet, and the dissolved protein solution was shaken overnight at 4° C. for maximal recovery. The dissolved fraction was then centrifuged, filtrated, concentrated, and subjected to overnight dialysis against buffer A. Filtered fractions of the VP proteins after dialysis were uploaded into a HiTrap™ Q HP Column (GE Healthcare Bio-Sciences AB, Uppsala, Sweden) pre-equilibrated with buffer A, through ÄKTA pure protein purification system (GE Healthcare Bio-Sciences AB). Proteins were eluted in a two-step linear gradient from 0 to 1 M NaCl, at a flow rate of 1 ml/min: the first phase of 0-25% over 15 column volumes (75 min) and second phase of 25-100% over 2 column volumes (10 min). The fractions of the peak with the highest VP activity (and absorption at 407 nm) were pooled, concentrated, and dialyzed against 20 mM piperazine buffer pH=5.5 and 150 mM NaCl (buffer B). Protein fractions were then uploaded onto a Superdex 75 Increase 10/300 GL (GE Healthcare Bio-Sciences AB) through the ÄKTA pure system pre-equilibrated with buffer B. The fractions of the peak with the highest VP activity (and absorption at 407 nm) were pooled and dialyzed against buffer A. Pure protein samples were stored at 4° C. Protein concentration was determined using the BCA assay with bovine serum albumin as a standard.
(§3) pH activity profiles. For purified 5H, 8H, 11H, and R4, 20 μL protein samples (diluted in buffer A) were transferred into activity 96 plates (in the case of VA and MnSO4, UV-Star plates; Greiner Bio-One GmbH, Kremsmünster, Austria) and then, 180 μL of the reaction mixture were added to each row in the plate, and absorption at the appropriate wavelength (substrate-dependent) was recorded immediately in a kinetic mode in a plate-reader at 25° C. The reaction mixtures contained a specific substrate in 100 mM citrate-phosphate-borate buffer (pH 2, 3, 3.5, 4, 5, 6, 7, 8) and 0.1 mM H2O2. The activities were recorded in triplicate. The following substrate concentrations and absorption wavelengths were used: ABTS: 2 mM, 418 nm; DMP: 5 mM, 469 nm; RB5: 0.05 mM, 598 nm; VA: 30 mM, 310 nm. For manganese, the reaction mixtures contained 60 mM MnSO4 in 100 mM sodium tartrate buffer (pH 3, 3.5, 4, 4.5, 5) and 0.1 mM H2O2, and the Mn^3+-tartrate complex absorption was read at 238 nm. For each protein and substrate, the activities were normalized to the activity at optimal pH for residual activity calculations. Each activity assay was conducted in triplicate.
(§4) Kinetic parameters. Steady-state kinetics were determined for 5H, 8H, 11H and R4, by measuring the activity (initial rates) in increasing concentrations of the substrate, and the KM and Kcat values were calculated by fitting the results to the Michaelis-Menten model (V0=KcatES/(KM+S)).

For test [3], the target named is Pleurotus eryngii versatile peroxidase VPL, variant R4 (VPL-R4, previously evolved for expression; wild type SEQ ID NO: 8) (Pleurotus eryngii, UniProt O94753). Type of test: biochemical. The settings on record: 25° C. As for the experimental part: as §1, §2, §3, §4
Test [4] has as its system Pleurotus eryngii versatile peroxidase VPL, variant R4 (VPL-R4, previously evolved for expression; wild type SEQ ID NO: 8). Format: biochemical. As for the experimental part:
as §1, §2, §3, §4

Where [5] appears, read: VA, RB5, optimum pH, 0.2 mM H2O2.
The mark [6] stands for this setting: high efficiency site, optimum pH, 0.2 mM H2O2.
The mark [7] stands for this setting: low efficiency site, optimum pH, 0.2 mM H2O2.
Setting [8] is: high efficiency site, optimum pH, 1 mM H2O2.
Where [9] appears, read: low efficiency site, optimum pH, 1 mM H2O2.
Where [10] appears, read: H2O2 kinetics with 3 mM ABTS, optimum pH for ABTS.
Setting [11] is: H2O2 kinetics with 2 mM ABTS, optimum pH for ABTS.

Like-named read-outs stand apart in the source and are kept apart here.

One may read the Km as the concentration of substrate that gives half-maximal velocity.

Sequence of Pleurotus eryngii versatile peroxidase VPL, variant R4 (VPL-R4, previously evolved for expression; wild type SEQ ID NO: 8) (Pleurotus eryngii, UniProt O94753) (O94753 31-361, change not shown): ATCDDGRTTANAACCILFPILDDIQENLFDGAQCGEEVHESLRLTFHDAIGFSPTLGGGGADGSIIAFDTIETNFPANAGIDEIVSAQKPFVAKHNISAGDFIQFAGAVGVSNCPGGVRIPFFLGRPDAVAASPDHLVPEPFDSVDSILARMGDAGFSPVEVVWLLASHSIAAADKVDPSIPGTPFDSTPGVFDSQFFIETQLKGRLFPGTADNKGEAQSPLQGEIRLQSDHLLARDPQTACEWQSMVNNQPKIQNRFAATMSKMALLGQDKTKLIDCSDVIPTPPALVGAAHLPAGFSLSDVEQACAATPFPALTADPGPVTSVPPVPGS

For `COc1ccc(CO)cc1OC` [VA, veratryl alcohol], the “affinity for VA relative to the next best enzyme” value in test [1] (5H relative to the next best enzyme) is on record as “more than an order of magnitude higher affinity”. Also, in test [2] (setting [5]), the Kcat was 5.5 ± 0.1 s⁻¹, the Kcat/KM turned out to be 550 ± 20 M⁻¹ s⁻¹ and the Km amounted to 10100 µM. For the same molecule, in test [3] (VA, RB5, optimum pH, 1 mM H2O2), the Kcat worked out at 5.4 ± 0.4 s⁻¹, the Kcat/KM is 0.7 ± 0.1 s⁻¹ mM⁻¹ and the Km is 7400 µM.

Consider `CCn1c(=NN=c2sc3cc(S(=O)(=O)O)ccc3n2CC)sc2cc(S(=O)(=O)O)ccc21` [ABTS, 2,2′-azino-bis (3-ethylbenzothiazoline-6-sulfonic acid)], for which the Kcat came out at 7.8 ± 0.3 s⁻¹ in test [2] (setting [6]), 28.2 ± 0.9 s⁻¹ in test [2] (setting [7]), 1.3 ± 0.1 s⁻¹ in test [3] (setting [8]) and 400 ± 21 s⁻¹ in test [3] (setting [9]). Also, the Kcat/KM in test [2] (setting [6]) is 1.55e+06 ± 260000 M⁻¹ s⁻¹; in test [2] (setting [7]), 35400 ± 4400 M⁻¹ s⁻¹; in test [3] (setting [8]), 3,300 ± 700 sec^−1 mM^−1; in test [3] (setting [9]), 405 ± 49 s⁻¹ mM⁻¹. Also, the Km in test [2] (setting [6]) came to 5 ± 0.8 µM; in test [2] (setting [7]) it was 795 ± 96 µM; in test [3] (setting [8]), 0.39 ± 0.08 µM; in test [3] (setting [9]), 987 ± 107 µM.

In the case of `OO` [H2O2, Hydrogen peroxide], the entries for the “H2O2 affinity, fold lower than seen in 11H” value in test [1] (5H relative to 11H), in test [2] (8H relative to 11H) and in test [4] were 5 fold, 2 fold and 12 fold, respectively. Besides, the Kcat worked out at 12.1 ± 0.6 s⁻¹ in test [2] (setting [10]) and 230 ± 9 s⁻¹ in test [3] (setting [11]). Moreover, the figures for the Kcat/KM in test [2] (setting [10]) and in test [3] (setting [11]) were 135000 ± 21000 M⁻¹ s⁻¹ and 503 ± 61 s⁻¹ mM⁻¹, respectively. Also, the Km was found to be 89.7 ± 12.9 µM in test [2] (setting [10]) and 457 ± 53 µM in test [3] (setting [11]).

For `COc1cccc(OC)c1O` [DMP, 2,6-dimethoxyphenol], the “heme-dependent affinity for DMP, fold higher relative to the other VPs” value in test [2] (8H relative to the other VPs (5H, 11H, R4)) is “at least 70 fold”. Further, the Kcat in test [2] (setting [6]) is 2.2 ± 0.1 s⁻¹; in test [2] (setting [7]), 3.6 ± 0.1 s⁻¹; in test [3] (setting [8]), 0.74 ± 0.05 s⁻¹; in test [3] (setting [9]), 132 ± 7 s⁻¹. Also, the Kcat/KM in test [2] (setting [6]) amounted to 94600 ± 8200 M⁻¹ s⁻¹; in test [2] (setting [7]), 22100 ± 1600 M⁻¹ s⁻¹; in test [3] (setting [8]), 542 ± 113 s⁻¹ mM⁻¹; in test [3] (setting [9]), 8.2 ± 1.0 s⁻¹ mM⁻¹. Moreover, the Km in test [2] (setting [6]) was 22.9 ± 1.8 µM; in test [2] (setting [7]), 164 ± 12 µM; in test [3] (setting [8]), 1.4 ± 0.3 µM; in test [3] (setting [9]), 16100 µM.

In the case of `Nc1c(N=Nc2ccc(S(=O)(=O)CCOS(=O)(=O)O)cc2)c(S(=O)(=O)O)cc2cc(S(=O)(=O)O)c(N=Nc3ccc(S(=O)(=O)CCOS(=O)(=O)O)cc3)c(O)c12` [RB5, reactive black 5], in test [2] (setting [5]), the Kcat amounted to 1.1 ± 0.1 s⁻¹, the Kcat/KM came out at 65000 ± 7200 M⁻¹ s⁻¹ and the Km stood at 17.3 ± 1.7 µM. In addition, in test [3] (VA, RB5, optimum pH, 1 mM H2O2), the Kcat was 0.63 ± 0.02 s⁻¹, the Kcat/KM turned out to be 487 ± 51 s⁻¹ mM⁻¹ and the Michaelis-Menten constant (Km) is 1.3 ± 0.1 µM.
